In patent US7335682B2, “Pharmaceutical compositions and methods for treating immune-response associated diseases of the surface and the anterior segment of the eye” (The Zhongshan Opthalmic Center, priority 2000, dated 2008):
Like-named read-outs stand apart in the source and are kept apart here.

Key:
[1] = cited from earlier work
[2] = system: immune rejection in high risk cornea transplantation; experiment: Clinical study of suppression of immune rejection in high risk cornea transplantation
Excerpt: Fifty-six high risk patients (56 eyes) who needed operation for cornea transplantation were randomly divided into a treatment group and a control group, each having […] patients. […] Average time for follow-up survey was 5½ months. The main criteria for clinical valuation include visual function, lasting time for transparency, new angiopoiesis, swelling, opaque degree of transplanted corneas after operation.
56 high risky patients (56 eyes) who need operation for cornea transplantation were chosen in this study with 32 eyes from male and 24 from female. The average age was 31 (19-66). Of which 27 eyes were carried for full cornea transplantation, 14 for full cornea transplantation with scleral ring, 10 eyes with angiopoiesis cornea were used for cornea transplantation, and 10 for multiple transplantations. Blindness was caused by pyogenic infection of eyes (30 eyes), severe chemical injury (18 eyes), and thermal burn (8 eyes).
The control medicine CsA was a product of Swiss Sandoz pharmaceuticals which was diluted to 1% eye drops with oleum ricini. Corticosteroid eye drops was also purchased commercially.
The above cases were randomly divided into treatment group and control group with each having 28 eyes. […] Medicines were given 3 days after surgery, continuing 3-9 months, follow-up survey was 5½ months.
Observation was done twice a week within 1-3 months after medication, then once a week after 3 months. The items for observation were vision and transplanted corneas (including three criteria: new angiopoiesis, swelling, opacity of transplanted corneas). The scores for each criterion are as follows: new angiopoiesis has grades 0-3, grade 0 indicates no new angiopoiesis (0 score), grade 1 a few new angiopoiesis focusing on transplanted corneas and starting penetration the edges of transplantation (1 score), grade 2 a few new angiopoiesis focusing on center of the transplanted corneas (2 scores), grade 3 a great numbers of new angiopoiesis fully covering the whole transplanted corneas (3 scores). The swelling contains grades 0-3, grade 0 means no swelling (0 score), grade 1 light swelling (1 score), grade 2 medium swelling (2 scores), grade 3 severe swelling (3 scores). […] Rejection index (RI) is a sum of the previous 3 criteria. When RI=5 scores it is considered rejection. The study would not cover the following conditions: epithelium had reaction of rejection, complication happened during operation, and swelling and dissolution of transplanted corneas occurred after operation due to a functional failure of implanted cornea endothelia, lesion fissure, secondary glaucoma, infection of transplantation.
All operations on patients in the study were done by professors in the Department of Corneal Diseases. Donor corneas were all freshly obtained from adults. Specific people were assigned for follow-up survey after surgery. t-test, u-test, and analysis of variance were carried out on the data using commercially available software.

[3] = system: immune rejection of allotypic cornea transplantation; conditions: rat; for effect on immune rejection in allotypic cornea transplantation: superficial (ocular surface) administration
[4] = system: immunosuppression; conditions: in vitro; cited from earlier work
[5] = system: immune-response related ocular surface diseases; experiment: Further clinical observations with topical tacrolimus in immune ocular diseases; assay type: in vivo, patients

SMILES	terminal elimination half-life ([1]; healthy volunteers) [h]	absorption half-life ([1]; oral dose, measured in 16 patients) [h]	terminal elimination half-life ([1]; transplant patients) [h]	final rate of rejection to the transplantation ([2]; 28 eyes per group, RI=5 counted as rejection, follow-up 5½ months) [%]	maintenance time for transparency in transplanted corneas after surgery ([2]; 28 eyes per group, eye drops four times a day with TOBRA DEX) [days]	eyes with final vision (=0.05 for FK-506, =0.5 for CsA as printed) ([2]; 28 eyes per group, with TOBRA DEX, follow-up 5½ months) [%]	new angiopoiesis, swelling, opaqueness and RI values of cornea transplantation ([2]; during follow-up survey)	adverse reactions (twinges, itches, toxic reactions on cornea epithelia) ([2]; topical eye drops, patients)	effect on immune rejection in allotypic cornea transplantation [3]	effect on immune rejection in allotypic cornea transplantation ([3]; listed as Tecolimus)	effect on swelling of transplanted corneas in early phase ([3]; superficial administration)	effect on immunosuppression relative to CsA [4]	conjunctive inflammation non-responsive to CsA treatment ([5]; 17 cases, topical administration)	recurrence of recurring erosive corneal ulcer ([5]; 26 cases, five months to two years, topical)	rejection reaction in cornea transplantation ([5]; 64 cases, most of them, topical)	effect on Type I and IV hypersensitive reactions ([5]; topical administration)	effect on Types II and III hypersensitive reactions (e.g. Steven Johnson Syndrome) ([5]; topical administration)	effect on re-construction of ocular surface and obstinate and immune corneal diseases ([5]; topical administration)	effect on inflammation in early phase ([3]; superficial administration)	inhibition of new angiopoiesis after cornea transplantation ([3]; superficial administration)
C=CC[C@@H]1/C=C(\C)C[C@H](C)C[C@H](OC)[C@H]2O[C@@](O)(C(=O)C(=O)N3CCCC[C@H]3C(=O)O[C@H](/C(C)=C/[C@@H]3CC[C@@H](O)[C@H](OC)C3)[C@H](C)[C@@H](O)CC1=O)[C@H](C)C[C@@H]2OC.O [tacrolimus, Tacrolimus]	21.2	5.7 ± 4.6	11.7 ± 3.9	60.8	70.4 ± 18.32	39.3	much better than the CsA group	No patient showed adverse reactions	clear inhibition	clearly therapeutic effects	worse therapeutic effects	10-100 folds	successfully controlled	only three cases had recurrence	significantly reduced rejection reaction	significant therapeutic effects	some, but not complete therapeutic effect	excellent clinical effects		
C[C@@H]1C[C@H]2[C@@H]3CCC4=CC(=O)C=C[C@]4(C)[C@@]3(F)[C@@H](O)C[C@]2(C)[C@@]1(O)C(=O)CO [corticosteroid, dexamethasone]																			strong inhibition effect	strongest effect
